Experimental findings from ChEMBL document CHEMBL1128954, “Discovery of antirhinoviral leads by screening a combinatorial library of ureas prepared using covalent scavengers” (Bioorg Med Chem Lett, 1996) are described below.

Assay [1] has as its system Human rhinovirus sp. Kind of assay: Compound was evaluated for cytotoxicity against human rhinovirus-14 (HRV-14) in whole cells as cresynthesized product using XTT assay. In kind it is functional. A general note: Tetrazolium assays rely on reduction of a dye to a coloured formazan, in cell work by metabolically active cells.
Assay [2] has as its system Human rhinovirus sp. The assay can be described thus: Compound was evaluated for antirhinoviral activity against human rhinovirus-14 (HRV-14) in whole cell assay. In kind it is functional, organism-based.
Assay [3] concerns Human rhinovirus sp. The assay can be described thus: Compound was evaluated for the inhibition of human rhinovirus-14 HRV-14 at 1 ug/ml. In kind it is functional.
Assay [4] deals with Human rhinovirus sp. The assay can be described thus: Compound was evaluated for cytotoxicity against human rhinovirus-14 (HRV-14) in whole cells as combinatorial sample. In kind it is functional.
In assay [5] the test system is Human rhinovirus sp. The assay can be described thus: Compound was evaluated for antirhinoviral activity against human rhinovirus-14 (HRV-14) as resynthesized product using XTT assay. In kind it is functional, organism-based.
For assay [6], the system named is Human rhinovirus sp. Kind of assay: Compound was evaluated for antirhinoviral activity against human rhinovirus-14 (HRV-14) as combinatorial sample. In kind it is functional, organism-based.

One may read the IC50 as the point on the concentration scale where inhibition reaches its midpoint. As a reminder, the inhibition is the relative decrease from the control value, in per cent. On to `CCCCOC(=O)c1ccc(NC(=O)N2CCN(CC(=O)NC(C)C)CC2)cc1`, for which the TC50 in the assay on Human rhinovirus sp. [1] and in the assay with Human rhinovirus sp. [4] was above 40 µM each time. Moreover, the IC50 worked out at 2.4 µM with Human rhinovirus sp. [2] and 1.8 µM with Human rhinovirus sp. [2] (Human rhinovirus sp.). In the assay on Human rhinovirus sp. [3], the inhibition at 1 µg/mL came out at 101%.

Regarding `CCCCOC(=O)c1ccc(NC(=O)NCCNC(C)=O)cc1`, in the assay on Human rhinovirus sp. [3], the inhibition at 1 µg/mL was found to be 0%.

Consider `CCCCOC(=O)c1ccc(NC(=O)N2CCCC(C(N)=O)C2)cc1` (stereo not drawn), for which the inhibition at 1 µg/mL with Human rhinovirus sp. [3] was 1%.

`CCCCOC(=O)c1ccc(NC(=O)NCCc2ccc(S(N)(=O)=O)cc2)cc1`: the figures for the IC50 with Human rhinovirus sp. [5] and in the assay on Human rhinovirus sp. [6] were 0.81 µM and 0.69 µM, respectively. Further, the TC50 in the assay with Human rhinovirus sp. [1] is above 40 µM; in the assay with Human rhinovirus sp. [4], 34 µM. The inhibition at 1 µg/mL in the assay with Human rhinovirus sp. [3] was determined as 102%.

As for `CCCCOC(=O)c1ccc(NC(=O)N2CCCCC2O)cc1` (stereo not drawn), the inhibition at 1 µg/mL with Human rhinovirus sp. [3] was found to be 2%.

For `CCCCOC(=O)c1ccc(NC(=O)N2CCSCC2)cc1`, the inhibition at 1 µg/mL in the assay with Human rhinovirus sp. [3] was found to be 1%.

Take `CCCCOC(=O)c1ccc(NC(=O)N2CCC(C(N)=O)CC2)cc1`: the inhibition at 1 µg/mL in the assay on Human rhinovirus sp. [3] worked out at 0%.

Consider `CCCCOC(=O)c1ccc(NC(=O)NC2CC3CCC2C3)cc1` (stereo not drawn), for which the inhibition at 1 µg/mL in the assay on Human rhinovirus sp. [3] is 1%.

As to `CCCCOC(=O)c1ccc(NC(=O)N2CCN(c3ccccn3)CC2)cc1`, the inhibition at 1 µg/mL in the assay on Human rhinovirus sp. [3] was 0%.

For `CCCCOC(=O)c1ccc(NC(=O)N2CCCC(C(=O)N(CC)CC)C2)cc1` (stereo not drawn), the inhibition at 1 µg/mL with Human rhinovirus sp. [3] was 0%.
